Test results as given in article PMC6234012 (Nature structural & molecular biology, 2018).
No end group written: not given here.

Tests used:
[1] = test system: Ku; conditions: fluorescence polarization with labelled peptides; cited from earlier work
[2] = test system: DSBs sites in XLF-defective BuS cells; assay: Live cell recruitment of CFP-XLF to laser sites, BuS cells; format: cell-based, human; conditions: for Recruitment to laser-irradiated sites, full-length XLF: CFP-XLF in BuS cells, n=20 cells, WT vs L297W p=0.0093, WT vs L297E p<0.0001
[3] = target: KuFL (full length Ku70/Ku80) (Homo sapiens, UniProt P12956+P13010); assay: ITC, ligand into KuFL; format: binding; conditions: 25°C, pH 8.0, KuFL in cell, line 9 deduced from the first injection point
Chain of KuFL (full length Ku70/Ku80) (P13010 whole entry): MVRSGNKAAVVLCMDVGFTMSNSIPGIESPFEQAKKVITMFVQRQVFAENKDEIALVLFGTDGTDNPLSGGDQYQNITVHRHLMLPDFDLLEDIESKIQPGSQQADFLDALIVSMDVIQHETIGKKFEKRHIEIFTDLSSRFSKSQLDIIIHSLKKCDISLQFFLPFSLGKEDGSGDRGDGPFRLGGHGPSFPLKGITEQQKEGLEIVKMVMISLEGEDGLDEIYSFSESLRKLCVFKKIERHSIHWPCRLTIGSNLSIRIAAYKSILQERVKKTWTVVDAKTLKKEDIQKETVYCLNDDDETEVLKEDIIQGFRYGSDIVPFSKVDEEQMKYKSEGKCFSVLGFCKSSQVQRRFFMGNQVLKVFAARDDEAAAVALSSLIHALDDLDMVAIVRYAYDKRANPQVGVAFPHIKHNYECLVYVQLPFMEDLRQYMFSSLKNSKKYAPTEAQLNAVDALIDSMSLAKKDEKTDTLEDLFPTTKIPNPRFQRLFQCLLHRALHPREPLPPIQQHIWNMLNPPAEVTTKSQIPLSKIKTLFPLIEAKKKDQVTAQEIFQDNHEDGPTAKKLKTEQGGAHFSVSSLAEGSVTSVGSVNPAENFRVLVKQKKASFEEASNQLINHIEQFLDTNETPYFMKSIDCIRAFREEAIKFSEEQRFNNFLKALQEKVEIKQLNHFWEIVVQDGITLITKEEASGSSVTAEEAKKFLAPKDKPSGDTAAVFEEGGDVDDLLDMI
Chain of KuFL (full length Ku70/Ku80) (P12956 whole entry): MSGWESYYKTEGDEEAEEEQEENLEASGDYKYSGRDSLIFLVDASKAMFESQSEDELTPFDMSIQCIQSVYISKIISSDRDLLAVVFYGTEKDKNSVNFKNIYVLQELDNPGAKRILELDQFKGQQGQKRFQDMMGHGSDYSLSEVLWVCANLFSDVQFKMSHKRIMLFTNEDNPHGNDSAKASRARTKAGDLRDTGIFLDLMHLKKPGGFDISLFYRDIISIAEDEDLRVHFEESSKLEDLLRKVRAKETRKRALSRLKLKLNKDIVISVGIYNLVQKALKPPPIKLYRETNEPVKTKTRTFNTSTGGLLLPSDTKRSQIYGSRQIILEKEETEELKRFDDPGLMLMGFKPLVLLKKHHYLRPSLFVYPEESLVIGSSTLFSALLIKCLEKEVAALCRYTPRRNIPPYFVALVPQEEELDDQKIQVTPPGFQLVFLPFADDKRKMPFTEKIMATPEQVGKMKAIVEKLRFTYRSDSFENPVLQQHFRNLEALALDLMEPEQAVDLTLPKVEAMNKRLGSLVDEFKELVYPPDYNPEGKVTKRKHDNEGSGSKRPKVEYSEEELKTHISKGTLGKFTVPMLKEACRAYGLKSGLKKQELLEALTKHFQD

[4] = test system: Ku80; conditions: yeast two-hybrid experiments or EMSA; cited from earlier work
[5] = target: Ku70 full length;Ku80 full length;XLF full length (human?;human?;human?, UniProt P12956;P13010;Q9H9Q4 1-609;1-732;1-299, ||); assay: EMSA
Chain of Ku70 full length;Ku80 full length;XLF full length (P12956 whole entry, chain 1 of 3): as the sequence (P12956 whole entry) above
Chain of Ku70 full length;Ku80 full length;XLF full length (P13010 whole entry, chain 2 of 3): as the sequence (P13010 whole entry) above
Chain of Ku70 full length;Ku80 full length;XLF full length (Q9H9Q4 whole entry, chain 3 of 3): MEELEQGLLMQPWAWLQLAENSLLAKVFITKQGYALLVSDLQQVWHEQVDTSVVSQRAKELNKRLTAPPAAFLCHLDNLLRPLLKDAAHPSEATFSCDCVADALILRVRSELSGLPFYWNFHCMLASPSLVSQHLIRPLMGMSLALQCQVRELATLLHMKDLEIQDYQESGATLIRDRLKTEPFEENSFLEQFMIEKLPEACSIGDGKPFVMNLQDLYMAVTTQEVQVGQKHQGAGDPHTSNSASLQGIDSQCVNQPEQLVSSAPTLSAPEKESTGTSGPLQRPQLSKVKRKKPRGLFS

[6] = target: Ku70cc;Ku80cc;pXLFs (short X-KBM peptide) (human?;human?;human?, UniProt P12956;P13010;Q9H9Q4 1-544;1-551;287-299, ||); assay: X-ray crystallography 2.9 A
Chain of Ku70cc;Ku80cc;pXLFs (short X-KBM peptide) (P12956 1-544, chain 1 of 2): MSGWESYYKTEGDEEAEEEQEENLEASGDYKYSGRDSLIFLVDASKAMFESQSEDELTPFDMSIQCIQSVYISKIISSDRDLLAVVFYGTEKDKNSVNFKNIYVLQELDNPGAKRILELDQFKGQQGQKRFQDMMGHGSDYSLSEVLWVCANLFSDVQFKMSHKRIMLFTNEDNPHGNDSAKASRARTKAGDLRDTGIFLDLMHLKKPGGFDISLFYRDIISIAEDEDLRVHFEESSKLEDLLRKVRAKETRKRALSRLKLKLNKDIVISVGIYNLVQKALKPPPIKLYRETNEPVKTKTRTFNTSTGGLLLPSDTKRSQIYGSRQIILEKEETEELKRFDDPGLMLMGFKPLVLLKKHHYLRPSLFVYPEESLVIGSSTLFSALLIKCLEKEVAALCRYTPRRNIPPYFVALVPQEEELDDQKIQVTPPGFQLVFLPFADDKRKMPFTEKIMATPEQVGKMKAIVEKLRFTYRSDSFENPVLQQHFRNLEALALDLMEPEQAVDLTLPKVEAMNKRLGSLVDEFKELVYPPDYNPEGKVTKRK
Chain of Ku70cc;Ku80cc;pXLFs (short X-KBM peptide) (P13010 1-551, chain 2 of 2): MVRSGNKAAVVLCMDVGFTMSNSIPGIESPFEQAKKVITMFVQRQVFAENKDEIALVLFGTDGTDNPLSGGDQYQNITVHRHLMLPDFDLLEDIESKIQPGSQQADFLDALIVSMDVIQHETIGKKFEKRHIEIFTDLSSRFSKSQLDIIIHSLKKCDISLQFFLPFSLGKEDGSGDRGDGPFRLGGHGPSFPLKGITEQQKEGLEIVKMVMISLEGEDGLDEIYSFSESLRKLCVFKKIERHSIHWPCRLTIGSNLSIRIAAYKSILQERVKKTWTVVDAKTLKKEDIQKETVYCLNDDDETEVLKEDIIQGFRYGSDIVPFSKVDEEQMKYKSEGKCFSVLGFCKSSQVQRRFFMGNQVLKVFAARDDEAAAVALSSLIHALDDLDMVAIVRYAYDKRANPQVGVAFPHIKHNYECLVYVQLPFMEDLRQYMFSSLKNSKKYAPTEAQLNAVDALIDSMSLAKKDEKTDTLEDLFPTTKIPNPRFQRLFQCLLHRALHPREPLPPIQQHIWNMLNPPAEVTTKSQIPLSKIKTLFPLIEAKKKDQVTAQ

[7] = target: Ku70cc;Ku80cc;pAPLF (A-KBM peptide) (human?;human?;human?, UniProt P12956;P13010;Q8IW19 1-544;1-551;174-191, ||); assay: X-ray crystallography 3.0 A
Chain of Ku70cc;Ku80cc;pAPLF (A-KBM peptide) (P12956 1-544, chain 1 of 2): as the sequence (P12956 1-544, chain 1 of 2) above
Chain of Ku70cc;Ku80cc;pAPLF (A-KBM peptide) (P13010 1-551, chain 2 of 2): as the sequence (P13010 1-551, chain 2 of 2) above

[8] = target: Ku70cc;Ku80cc;pXLF (long X-KBM peptide) (human?;human?;human?, UniProt P12956;P13010;Q9H9Q4 1-544;1-551;281-299, ||); assay: X-ray crystallography 2.8 A
Chain of Ku70cc;Ku80cc;pXLF (long X-KBM peptide) (P12956 1-544, chain 1 of 2): as the sequence (P12956 1-544, chain 1 of 2) above
Chain of Ku70cc;Ku80cc;pXLF (long X-KBM peptide) (P13010 1-551, chain 2 of 2): as the sequence (P13010 1-551, chain 2 of 2) above

[9] = target: T1, Ku70 full length;Ku80 full length (human?;human?, UniProt P12956;P13010 1-609;1-732, |); assay: switchSENSE
T1 sequence (P12956 whole entry, chain 1 of 2): as the sequence (P12956 whole entry) above
T1 sequence (P13010 whole entry, chain 2 of 2): as the sequence (P13010 whole entry) above

[10] = target: T1, Ku70 full length;Ku80 full length; assay: ITC

In the case of `CC(C)C[C@H](NC(=O)CNC(=O)[C@H](CCCNC(=N)N)NC(=O)[C@@H]1CCCN1C(=O)[C@H](CCCCN)NC(=O)[C@H](CCCCN)NC(=O)[C@H](CCCNC(=N)N)NC(=O)[C@H](CCCCN)NC(=O)[C@@H](NC(=O)[C@H](CCCCN)NC(=O)[C@H](CO)NC(=O)[C@H](CC(C)C)NC(=O)[C@H](CCC(N)=O)NC(=O)[C@@H]1CCCN1C(=O)[C@H](CCCNC(=N)N)NC(=O)[C@H](CCC(N)=O)NC(=O)[C@@H](N)CC(C)C)C(C)C)C(=O)N[C@@H](Cc1ccccc1)C(=O)N[C@@H](CO)C(=O)O` [pXLF], the Interaction detected [1] is given as “not detected”.

For “L115D XLF: XLF mutant unable to interact with XRCC4”, the “Recruitment to laser-irradiated sites, full-length XLF” value (“Recruitment to laser-irradiated sites” below) [2] was “efficient recruitment” and the “Effect of APLF knock-down on XLF recruitment” value ([2]; CFP-XLF, APLF knock-down) was “insensitive to APLF knock-down”.

In the case of “F298G: XLF mutant in the extreme C-terminus”, the “Recruitment to laser-irradiated sites” value [2] is reported as “important reduction of the recruitment”.

With “S299E: XLF mutant in the extreme C-terminus” the “Recruitment to laser-irradiated sites” value [2] was “important reduction of the recruitment”.

In the case of LQRPQLSKVKRKKPRGWFS [pXLF(LW)], the ΔH [3] is reported as -12.1 ± 2.0 kcal/M.

For “XLF L115D/L297E: XLF L115D/L297E double mutant”, the “Recruitment to laser-irradiated sites” value [2] was “impaired”.

For “G296W: XLF mutant in the extreme C-terminus”, the “Recruitment to laser-irradiated sites” value [2] was “important reduction of the recruitment”.

For APLF: APTX and PNKP-like factor, the “Effect of Ku80 mutations at L68, Y74, I112 on interaction with APLF” value [4] is given as “greatly reduce or disrupt the interactions”.

B1: 50bp DNA (MM 50bp up/do) (dsDNA)
DNA 1: TAAATGCCAATGCTGCTGATACGTACTCGGACTGATTCGGAACTGTAACG
DNA 2: CGTTACAGTTCCGAATCAGTCCGAGTACGTATCAGCAGCATTGGCATTTA
B1: binds [5].

B2: hDNA (CN1/CN2 hairpin DNA) (structured_DNA)
DNA 1: CGCGCCCAGCTTTCCCAGCTAATAAACTAAAAAC
DNA 2: GTTTTTAGTTTATTGGGCGCG
B2: binds [6]; binds [7]; binds [8].

B3: 48bp DNA nanolever (NLB48) (dsDNA)
DNA 1: TAGTCGTAAGCTGATATGGCTGATTAGTCGGAAGCATCGAACGCTGAT
DNA 2: ATCAGCGTTCGATGCTTCCGACTAATCAGCCATATCAGCTTACGACTA
B3: binds [9].

B4: DNA 18bp (CN3/CN4) (dsDNA)
DNA 1: GTTATCCGAGCGTGAGAC
DNA 2: GTCTCACGCTCGGATAAC
Molecule B4 has a Kd [10] of 4.1 ± 0.7 nM.
